The test system of this experiment is CEM cells HIV-1 protection, formazan growth assay. Nature of the experiment: NCI AIDS Antiviral Assay. Conditions: for IC50: measured here: growth of uninfected CEM cells. In short, it runs like this: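 Protection of CEM cells against HIV-1 measured as cell growth via soluble formazan read-out, with five concentrations tested on both infected and uninfected cells; failure to protect may reflect toxicity.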

Active and inactive are the calls of the source.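 The calls were made as follows: active = compounds giving half or more protection of infected cells from virus-caused growth loss, again on retest; inactive = the rest.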 A value given as a limit tells only on which side of the number the result lay.

`Nc1ncnc2c1ncn2C1OC(COP(=O)(O)O)C(O)C1O` (stereo not drawn): the EC50 was > 200 µM and the IC50 is > 200 µM.

For the compound `O=C(C=Nc1ccccc1C(=O)O)c1ccco1`, the EC50 is > 8.32 µM and the IC50 is > 8.32 µM.

For `Cc1ccc(C(=O)NCCCl)cc1C`, the result was inactive.

As for `O=P(O)(O)OP(=O)(O)O.[NH-]CC[NH-].[NH-]CC[NH-].[Pd+2].[Pd+2]`, the EC50 is > 200 µM and the IC50 was determined as 102 µM.

Regarding `CC(=O)CC12NC(=O)N(C)N=C1N(C)C(=O)N(C)C2=O` (stereo not drawn), the EC50 was > 200 µM and the IC50 was 10.7 µM.

In the case of `COc1ccc2c(c1)CC1Cc3cc(OC)c(OC)cc3CN1CC2` (stereo not drawn), the EC50 was > 200 µM and the IC50 is 23.4 µM.

In the case of `CC1=NC=C(O)c2ccccc2O1`, the EC50 was > 40.7 µM and the IC50 is > 40.7 µM.

Take `O=C(O)CCCCCCC[n+]1ccccc1`: the EC50 was 126 µM and the IC50 was > 200 µM.

With `O=C(OCCN1CCCC1)c1cc2ccccc2n1-c1ccccc1`, the EC50 was > 200 µM and the IC50 was determined as 46.8 µM.

As for `COc1ccc(SCc2cc(OC)ccc2OC)cc1`, the EC50 was > 200 µM and the IC50 worked out at 3.98 µM.

In the case of `CCN(CC)c1ccc2cc(-n3nnc4ccccc43)c(=O)oc2c1`, the EC50 is > 8.13 µM and the concentration for half-maximal inhibition (IC50) is > 8.13 µM.

As to `CCCCc1c2c(nc3c1CC/C(=C\c1ccc([N+](=O)[O-])cc1)C3=O)CCCC2`, the EC50 is > 6.92 µM and the IC50 came out at 1.32 µM.

With `c1ccc(C[P+]2(c3ccccc3)c3ccccc3-c3ccccc32)cc1`, the EC50 was > 200 µM and the IC50 was > 200 µM.

Take `COc1ccccc1C1c2cc3c(cc2OC(O)(CO)C1C(=O)O)OCO3` (stereo not drawn) (tested in a mixture with another compound): the outcome was inactive.

As for `O=C(O)c1ccc(C(=O)c2ccccc2C(=O)O)cc1`, the EC50 was > 200 µM and the IC50 was > 200 µM.

Take `COC(=O)[C@]12CCC(=O)N1[C@H](C(=O)O)Cc1c2[nH]c2ccccc12`: the EC50 was > 200 µM and the IC50 was > 200 µM.

For `Cc1nnc(N)nc1/C=C\c1cccs1`, the EC50 was > 200 µM and the half-maximal inhibitory concentration (IC50) turned out to be 5.5 µM.

In the case of `CCCCCNC(=O)CCCCCCCCCCCNC(=O)CCCCCCCCCCN1C=CC(=CC=C2C=CC(=O)C=C2)C=C1`, the result was inactive.

On to `C=C(CCCCCCCCC)CC(=O)SCCNC(=O)CCNC(=O)C(O)C(C)(C)COP(=O)(O)OP(=O)(O)OCC1OC(n2cnc3c(N)ncnc32)C(O)C1OP(=O)(O)O` (stereo not drawn), for which the EC50 was > 200 µM and the IC50 turned out to be 72.4 µM.

In the case of `Cc1cc(=O)oc2cc(SC(=O)N(C)C)ccc12`, the EC50 is > 200 µM and the IC50 is > 200 µM.

For `C/C(N=NS(=O)(=O)c1c(C)cc(C)cc1C)=C1\C=CC=CN1O`, the result was inactive.

In the case of `Cc1c2n(c(=O)[nH]c1=O)C1OC(CO)C(O2)C1N=[N+]=[N-]` (stereo not drawn), the EC50 is 135 µM and the IC50 is > 200 µM.

Consider `CCNC(=O)C(O)C1(O)CCC2[C@@H]3CCC4=CC(=O)C=C[C@]4(C)C3C(O)C[C@@]21C` (stereo partly drawn), for which the outcome was inactive.

On to `O=C1c2ccccc2C(=CC=C2c3ccccc3Sc3ccccc32)c2ccccc21`, for which the EC50 was > 9.12 µM and the IC50 was > 9.12 µM.

With `Cc1cccc(N(CC(=O)O)S(=O)(=O)c2ccccc2)c1`, the outcome was inactive.

Take `COc1ccc(/C=C2\CCC/C(=C\c3ccc(O)c(CN4CCCCC4)c3)C2=O)cc1`: the EC50 is > 200 µM and the IC50 is 3.16 µM.

Take `COc1cccc([N+](=O)[O-])c1N=O`: the EC50 is > 200 µM and the IC50 turned out to be 102 µM.

Regarding `COCCc1c(C)c(C#N)c2n(C)c3ccccc3n2c1=O`, the EC50 is > 200 µM and the IC50 was > 200 µM.

As to `COc1cc(C(C)=O)cc(C(=O)N(C(C)C)C(C)C)c1[Si](C)(C)C`, the EC50 is > 100 µM and the IC50 was > 100 µM.

Regarding `S=c1sc2c(Cl)ncnc2n1-c1ccccc1`, the EC50 is > 67.6 µM and the IC50 was 3.63 µM.

As to `CCCCCCCCOCC(O)COC(C)C` (stereo not drawn), the EC50 was > 200 µM and the IC50 came to 115 µM.

In the case of `O=C([O-])c1ccc([I+]c2ccccc2)cc1`, the outcome was inactive.

On to `COc1ccc(Nc2nc3c([nH]2)c(=O)n(C)c(=O)n3C)cc1`, for which the EC50 is > 200 µM and the IC50 was > 200 µM.

For the compound `CCN(CC)CCNc1nc2c([nH]1)c(=O)n(C)c(=O)n2C`, the EC50 was > 759 µM and the IC50 was 219 µM.

Turning to `CC(C)=CC1CC(n2cc(C)c(=O)[nH]c2=O)ON1CCO` (stereo not drawn), the EC50 was > 200 µM and the IC50 was > 200 µM.

`BrC(=C(c1ccc(OC2CCCCO2)cc1)c1ccc(OC2CCCCO2)cc1)c1ccccc1` (stereo not drawn): the EC50 was 70.8 µM and the IC50 was > 200 µM.

In the case of `CC[C@@H](C)C(=O)O[C@@H]1CC[C@]2(CO2)C2(COC(C)=O)C(OC(C)=O)CC(C)[C@](C)(C[C@H](O)C3=CC(=O)OC3)[C@@H]12` (stereo partly drawn), the result was inactive.

Turning to `Cc1ccc2nc(-c3ccccc3[N+](=O)[O-])[nH]c2c1`, the EC50 is > 269 µM and the IC50 came out at 57.5 µM.

Turning to `CCN(CCCl)CCCNc1c2ccccc2nc2ccc(OC)cc12`, the EC50 is > 20 µM and the IC50 turned out to be 0.295 µM.

`Cc1cc(N(CCC#N)CCC#N)ccc1/C(N=Nc1ccccc1)=N\NC(=O)c1cc(Cl)ccc1O`: the EC50 was > 200 µM and the IC50 stood at 28.8 µM.

Take `CC1(c2nc3cc(Cl)c(Cl)cc3[nH]2)CCC(C(=O)O)C(C)(C)O1` (stereo not drawn): the EC50 is > 200 µM and the IC50 was > 200 µM.

As for `CCC1(CCCC=C(c2cc(Cl)c(OC)c(CO)c2)c2cc(Cl)c(OC)c(CO)c2)OCCO1`, the EC50 was > 200 µM and the IC50 worked out at 11.7 µM.

With `CC(=O)OCCn1cnc2nc(Nc3ccccc3)nc(Cl)c21`, the EC50 was > 200 µM and the IC50 amounted to 70.8 µM.

Take `O=P(NC1CCCCC1)(NC1CCCCC1)NC1CCCCC1`: the EC50 was > 200 µM and the IC50 is > 200 µM.

As to `Cn1cc(NC(=O)c2nc(NC(=O)c3nc(NC(=O)c4ccc(C(=O)Nc5cn(C)c(C(=O)Nc6cn(C)c(C(=O)Nc7cn(C)c(C(=O)NCCC(=N)N)n7)n6)n5)cc4)cn3C)cn2C)nc1C(=O)NCCC(=N)N`, the EC50 is > 12.9 µM and the IC50 was found to be 2.34 µM.

Take `COc1c2cc([N+](=O)[O-])cc1CNC(=O)CN1CCOCCOCCN(CCOCCOCC1)CC(=O)NC2`: the EC50 is > 100 µM and the half-maximal inhibitory concentration (IC50) was > 100 µM.

As for `CC(=O)O[C@H]1CC[C@@]2(C)C(=CC[C@@H]3C2CC[C@]2(C)Nc4nc5ccccc5cc4CC32)C1` (stereo partly drawn), the result was inactive.

Regarding `CC1=NN(c2ccccc2)C(=O)/C1=C\n1c(=S)[nH]c2ccccc21`, the EC50 was > 200 µM and the IC50 was 87.1 µM.

`CC(=O)OCC1OC(SC2=NC(=O)CS2)C(OC(C)=O)C(OC(C)=O)C1OC(C)=O` (stereo not drawn): the EC50 is > 200 µM, the outcome was inactive and the IC50 was found to be 74.1 µM.

As to `C1=CC(N(c2ccccc2)C2C=CCCC2)CCC1` (stereo not drawn), the outcome was inactive.

`CN(C)c1nc(=Nc2cccc(Cl)c2)ss1`: the result was inactive.

On to `Cc1cc(=O)n(-c2cc3cccccc-3n2)[nH]1`, for which the result was inactive.
